Legend:
[1] = Stability towards oxygen (powder and in aqueous and organic solvents; HPLC and TLC analysis); type: physicochemical
Text: In fact, this molecule is not changed by remaining in an aqueous solvent exposed to air for several days.

rat hepatocytes [2] = test: Toxicity on primary cultures of rat hepatocytes (24 h, total proteins, Bradford method); type: cell-based; conditions: 1.3×10^−5 to 5×10^−4 M CLM
Description: (§1) Coetenteramine was applied to primary cultures of rat hepatocytes cultured in microplates (20,000 cells per well, 200 μl ). The doses of CLM ranged from 1.3×10^−5 to 5×10^−4 M. After a period of 24 hours, their survival was evaluated by measuring the contents of total proteins in each well (Bradford method). […] Similar results were obtained on human fibroblasts (MRC-5) and human intestinal cells (CACO2).

[3] = system: human fibroblasts (MRC-5); test: Toxicity on human fibroblasts (MRC-5); type: cell-based
Description: as §1

[4] = system: human intestinal cells (CACO2); test: Toxicity on human intestinal cells (CACO2); type: cell-based
Description: as §1

[5] = system: low-density lipoproteins (LDL); test: In vitro oxidation of LDL induced by AAPH (joint dienes, absorbance at 234 nm); type: biochemical; conditions: increasing concentrations of CLM, 37° C.
Text: (§2) Oxidation of the polyunsaturated fatty acids of LDL is accompanied by the formation of joint dienes, which have a maximum absorbance at 234 nm. These joint dienes result from rearrangement of the double bonds of polyunsaturated fatty acids following removal of a […] hydrogen. The increase in the absorption of joint dienes can be measured directly in solution without resorting to extraction of the lipids. A latency phase during which few dienes are produced, a propagation phase during which the absorbance at 234 nm increases rapidly to reach a plateau and a decomposition phase where the aldehydes formed also absorb in the region of 210-240 nm, thus producing a new increase in the absorbance at 234 nm, are observed in succession. Measurement of the conjugated dienes currently seems to be the best indicator of the oxidizability of LDL if pure LDL preparations are available (Esterbauer et al. (1989)). […]
(§3) To measure the joint dienes, a solution of LDL (final concentration of 50 μg protein/ml PBS buffer, pH 7.4) is incubated in the presence of 5 μM copper or […] and in the absence or in the presence of varying concentrations of CLM in a quartz cell with an optical path of 1 cm. The absorbances at 234 nm of various samples are measured as a function of time on a UV-visible spectrophotometer (DU-8, Beckman). […]

[6] = system: human low-density lipoproteins; test: In vitro oxidation of LDL by copper (joint dienes at 234 nm; TBARS); type: biochemical
Text: as §2, §3

hepatocytes = test: Protection of hepatocytes subjected to nitrofurantoin (MTT survival); type: cell-based, rat; conditions: 3×10^−4 M NF for 6 hours, 5×10^−5 M CLM, MTT method, % of the controls
Description: (§4) Primary cultures of hepatocytes were subjected to the action of tert-butyl hydroperoxide (t-BHP) and nitrofurantoin (NF). The action of t-BHF is associated with its direct oxidizing power, while the action of NF results from the production of superoxide anions during its metabolization by the cytochrome P450 of cells.
FIG. 4 illustrates the survival of hepatocytes subjected to the action of 3×10^−4 M NF for 6 hours. At the end of this treatment, the survival (estimated by the MTT method) was 18% in the control groups. If CLM is added to the culture medium, the survival of the hepatocytes increases regularly, to reach 70% of the controls at 5×10^−5 M CLM.

fibroblasts = test: Resistance of fibroblasts subjected to t-BHP (MTT cytotoxicity curve); type: cell-based; conditions: 10^−5 M CLM, MTT test
Text: FIG. 5 illustrates the increase in the resistance of fibroblasts subjected to the action of t-BHP by means of 10^−5 M CLM.

rat hepatocytes [7] = test: Protection of hepatocytes treated with t-BHP (LDH release, mortality); type: cell-based
Description: as §4
The mortality, which is 75% in the controls, reaches only a few % in the presence of 50 μM CLM.

Nc1ncc(-c2ccc(O)cc2)nc1Cc1ccccc1 [Coelenteramine]
degradation product identified by HPLC and TLC ([1]; aqueous solvent exposed to air for several days): no degradation product
stability towards oxygen ([1]; powder and after solubilization in aqueous and organic solvents): excellent stability towards oxygen
toxicity (percentage survival of controls) (rat hepatocytes [2]): not at all toxic
toxicity [3]: absence of toxicity
toxicity [4]: absence of toxicity
appearance of joint dienes in the oxidation of LDL by AAPH [5]: significant slowing down in the appearance of joint dienes
protective action on LDL with respect to oxidation by copper ([6]; 5 μM copper, 30° C.): significant protective action
appearance of TBARS (MDA) in the oxidation of LDL ([6]; human LDL oxidized by Cu2+, as a function of time): delay in the appearance of TBARS
survival of hepatocytes (hepatocytes): 70%
cytotoxicity curve of t-BHP (fibroblasts): significant displacement of the cytotoxicity curve
mortality (rat hepatocytes [7]; 50 μM CLM): only a few %
release of lactate dehydrogenase (LDH) (rat hepatocytes [7]; CLM 10 and 50 μM): reduction in the release of lactate dehydrogenase

Source: patent US6376498B1, “Pharmaceutical, cosmetic and/or food composition with antioxidant properties” (Universite Catholique de Louvain, priority 1997, dated 2002)
